Reference: DBAASP
Converted amounts (≈) assume the structure as drawn. “And” between values parts separate entries of the source, which are not always exact repeats. Equal entries are not always repeated. Values belong to the molecule of their own block, whether it stands above or below them.

What was measured:
Assay in all cases: ≥ marks a high value that may be exact or a test limit, other limits are often not marked, values filed in µg/mL are converted to µM
[1] = test system: Escherichia coli ATCC 25922
[2] = test system: Candida albicans ATCC 2002
[3] = test system: Acinetobacter calcoaceticus
Shigella dysenteriae = test system: Shigella dysenteriae
Bacillus cereus = test system: Bacillus cereus
Bacillus pumilus = test system: Bacillus pumilus
[4] = test system: Staphylococcus aureus ATCC 2592
Pseudomonas aeruginosa = test system: Pseudomonas aeruginosa
[5] = test system: Bacillus subtilis IFO 3336
[6] = test system: Escherichia coli IFO 3301
[7] = test system: Candida albicans ATCC 200955
[8] = test system: Enterococcus faecium ATCC 700221
[9] = test system: Staphylococcus aureus ATCC 33591
[10] = test system: Staphylococcus aureus ATCC 25923
[11] = test system: Pseudomonas aeruginosa ATCC 27853
Escherichia coli W160-37 = test system: Escherichia coli W160-37
[12] = test system: Staphylococcus aureus ATCC 8530
[13] = test system: Staphylococcus aureus NCTC 10788
[14] = test system: Klebsiella pneumoniae ATCC 43816
Bacillus subtilis = test system: Bacillus subtilis
[15] = test system: Pseudomonas aeruginosa ATCC 9027
[16] = test system: Escherichia coli ATCC 8739
[17] = test system: Proteus mirabilis CCUG 26767
[18] = test system: Staphylococcus aureus ATCC 29213
[19] = test system: Enterococcus faecalis ATCC 19433
[20] = test system: Salmonella enterica subsp. enterica serovar Typhimurium LT2
[21] = test system: Bacillus subtilis ATCC 6633
[22] = test system: Enterococcus faecium NTCC 12697
[23] = test system: Staphylococcus aureus NCTC 12493
[24] = test system: Klebsiella pneumoniae ATCC 13883
[25] = test system: Enterococcus faecium ATCC 19434
Escherichia coli B = test system: Escherichia coli B
Candida krusei CK802/97 = test system: Candida krusei CK802/97
[26] = test system: Candida glabrata CG196/98IDE
Bacillus subtilis 168 = test system: Bacillus subtilis 168
[27] = test system: Candida parapsilosis Z150/119/IDE99
Staphylococcus aureus = test system: Staphylococcus aureus
Proteus vulgaris = test system: Proteus vulgaris
Streptococcus pyogenes = test system: Streptococcus pyogenes
[28] = test system: Staphylococcus epidermidis
Escherichia coli = test system: Escherichia coli
Salmonella typhimurium = test system: Salmonella typhimurium

Compound: CC[C@H](C)[C@H](NC(=O)[C@@H]1CCCN1C(=O)[C@H](Cc1ccccc1)NC(=O)[C@@H](N)Cc1ccccc1)C(=O)N[C@H](C(=O)NCC(=O)N[C@@H](CCCCN)C(=O)N[C@@H](CC(C)C)C(=O)N[C@@H](CC(C)C)C(=O)N[C@@H](Cc1ccccc1)C(=O)NCC(=O)N[C@@H](CC(C)C)C(=O)N[C@@H](Cc1ccccc1)C(=O)NCC(=O)N[C@@H](CC(C)C)C(=O)N[C@@H](CC(C)C)C(N)=O)C(C)C [FFPIVGKLLFGLFGLL]
- MIC [1]: 2.81 µM (≈ 5 µg/mL)
- MIC [2]: 0.702 µM (≈ 1.25 µg/mL)
- MIC [3]: 16.8 µM (≈ 30 µg/mL)
- MIC (Shigella dysenteriae): 5.61 µM (≈ 9.99 µg/mL)
- MIC (Bacillus cereus): 16.8 µM (≈ 30 µg/mL)
- MIC (Bacillus pumilus): 1.4 µM (≈ 2.5 µg/mL)
- MIC [4]: 1.4 µM (≈ 2.5 µg/mL)
- MIC (Pseudomonas aeruginosa): 4.21 µM (≈ 7.5 µg/mL)

Compound: NC(N)=NCCC[C@H](NC(=O)[C@H](Cc1cnc[nH]1)NC(=O)[C@@H](N)CCCN=C(N)N)C(=O)N[C@@H](Cc1cnc[nH]1)C(=O)O [RHRH]
- MIC [5]: ≥ 827 µM
- MIC [6]: ≥ 827 µM

Compound: CC[C@H](C)[C@H](NC(=O)[C@H](Cc1c[nH]c2ccccc12)NC(=O)[C@H](CCCCN)NC(=O)[C@H](CC(C)C)NC(=O)[C@H](CC(C)C)NC(=O)CN)C(=O)N[C@@H](CCCCN)C(=O)N[C@H](C(=O)N[C@@H](CC(C)C)C(=O)N[C@@H](CC(C)C)C(N)=O)[C@@H](C)O [GLLKWIKTLL]
- MIC [7]: 28.4 µM (≈ 33.6 µg/mL)
- MIC [8]: 9.5 µM (≈ 11.2 µg/mL)
- MIC [9]: 9.5 µM (≈ 11.2 µg/mL)
- MIC [10]: 1.69 µM (≈ 2 µg/mL)
- MIC [11]: 28.4 µM (≈ 33.6 µg/mL)

Compound: CC[C@H](C)[C@H](NC(=O)[C@H](CC(C)C)NC(=O)[C@@H]1CCCN1C(=O)[C@H](CC(C)C)NC(=O)[C@@H](N)Cc1ccccc1)C(=O)N[C@@H](CC(C)C)C(=O)N[C@@H](CCCN=C(N)N)C(=O)N[C@@H](CCCCN)C(=O)N[C@H](C(=O)N[C@H](C(=O)N[C@H](C(=O)N[C@@H](C)C(=O)N[C@@H](CC(C)C)C(N)=O)[C@@H](C)O)C(C)C)[C@@H](C)CC [FLPLILRKIVTAL]
- MIC (Escherichia coli W160-37): ≥ 100 µM
- MIC [12]: ≥ 200 µM
- MIC [1]: 200 µM (≈ 300 µg/mL)
- MIC [13]: 2 µM (≈ 2.99 µg/mL)
- MIC [14]: ≥ 64 µM
- MIC (Bacillus subtilis): ≥ 50.1 µM
- MIC [15]: 128 µM (≈ 191 µg/mL)
- MIC [16]: ≥ 32 µM
- MIC [17]: ≥ 401 µM
- MIC [18]: 200 µM (≈ 300 µg/mL)
- MIC [19]: ≥ 100 µM
- MIC [20]: ≥ 200 µM
- MIC [21]: ≥ 200 µM
- MIC [22]: 16 µM (≈ 23.9 µg/mL)
- MIC [11]: > 401 µM
- MIC [23]: 4 µM (≈ 5.98 µg/mL)
- MIC [24]: ≥ 401 µM
- MIC [25]: ≥ 50.1 µM

The remaining lines, values ahead:

- MIC [1]: 3.12 µM (≈ 5 µg/mL)
- MIC [2]: 1.56 µM (≈ 2.5 µg/mL)
- MIC [3]: ≥ 37.5 µM
- MIC (Shigella dysenteriae): 12.5 µM (≈ 20 µg/mL)
- MIC (Bacillus cereus): ≥ 46.8 µM
- MIC (Bacillus pumilus): 4.68 µM (≈ 7.5 µg/mL)
- MIC [4]: 1.56 µM (≈ 2.5 µg/mL)
- MIC (Pseudomonas aeruginosa): 1.56 µM (≈ 2.5 µg/mL)
Compound: CC[C@H](C)[C@H](NC(=O)[C@@H]1CCCN1C(=O)[C@H](CC(C)C)NC(=O)[C@@H](N)Cc1ccccc1)C(=O)N[C@H](C(=O)NCC(=O)N[C@@H](CCCCN)C(=O)N[C@@H](CC(C)C)C(=O)N[C@@H](CC(C)C)C(=O)N[C@@H](CO)C(=O)NCC(=O)N[C@@H](CC(C)C)C(=O)N[C@@H](CO)C(=O)NCC(=O)N[C@@H](CC(C)C)C(=O)N[C@@H](CO)C(N)=O)C(C)C [FLPIVGKLLSGLSGLS]

- MIC [5]: 5.62 µM (≈ 10 µg/mL)
- MIC [6]: 5.62 µM (≈ 10 µg/mL)
Compound: NC(N)=NCCC[C@H](NC(=O)[C@H](Cc1cnc[nH]1)NC(=O)[C@H](CCCN=C(N)N)NC(=O)[C@H](Cc1cnc[nH]1)NC(=O)[C@H](CCCN=C(N)N)NC(=O)[C@H](Cc1cnc[nH]1)NC(=O)[C@H](CCCN=C(N)N)NC(=O)[C@H](Cc1cnc[nH]1)NC(=O)[C@H](CCCN=C(N)N)NC(=O)[C@H](Cc1cnc[nH]1)NC(=O)[C@@H](N)CCCN=C(N)N)C(=O)N[C@@H](Cc1cnc[nH]1)C(=O)O [RHRHRHRHRHRH]

- MIC (Escherichia coli B): 1.8 µM (≈ 2.61 µg/mL)
- MIC (Candida krusei CK802/97): 30 µM and 15 µM and 20 µM
- MIC [26]: ≥ 40 µM and 25 µM and 30 µM
- MIC (Bacillus subtilis 168): 0.9 µM (≈ 1.31 µg/mL)
- MIC [27]: 30 µM and 15 µM
- MIC (Staphylococcus aureus): 8.4 µM (≈ 12.2 µg/mL)
- MIC (Pseudomonas aeruginosa): 16.3 µM (≈ 23.6 µg/mL)
Compound: CC[C@H](C)[C@H](NC(=O)[C@H](CC(C)C)NC(=O)[C@H](Cc1cnc[nH]1)NC(=O)CNC(=O)[C@H](CC(C)C)NC(=O)[C@@H](NC(=O)[C@H](CCCCN)NC(=O)[C@H](CCCCN)NC(=O)[C@H](Cc1c[nH]c2ccccc12)NC(=O)[C@H](CCSC)NC(=O)CN)[C@@H](C)CC)C(=O)N[C@@H](CCCN=C(N)N)C(N)=O [GMWKKILGHLIR]

- MIC (Proteus vulgaris): ≥ 64 µM
- MIC (Bacillus subtilis): ≥ 64 µM
- MIC (Streptococcus pyogenes): ≥ 64 µM
- MIC [28]: ≥ 64 µM
- MIC (Escherichia coli): 64 µM (≈ 210 µg/mL)
- MIC (Salmonella typhimurium): 2 µM (≈ 6.55 µg/mL)
- MIC (Pseudomonas aeruginosa): 64 µM (≈ 210 µg/mL)
Compound: CC[C@H](C)[C@H](NC(=O)[C@H](Cc1ccc(O)cc1)NC(=O)[C@@H](NC(=O)[C@@H]1CCCN1C(=O)[C@H](CCCN=C(N)N)NC(=O)[C@H](CC(N)=O)NC(=O)[C@H](CC(N)=O)NC(=O)CNC(=O)[C@@H]1CCCN1C(=O)[C@H](CCC(=O)O)NC(=O)[C@H](C)NC(=O)[C@H](CCC(=O)O)NC(=O)[C@@H]1CCCN1C(=O)[C@H](CCC(=O)O)NC(=O)[C@H](C)NC(=O)[C@H](CCC(=O)O)NC(=O)[C@H](CCCN=C(N)N)NC(=O)[C@@H](N)CCCN=C(N)N)C(C)C)C(=O)N1CCC[C@H]1C(=O)N[C@@H](CCC(N)=O)C(=O)N1CCC[C@H]1C(=O)N[C@@H](CCCN=C(N)N)C(=O)N1CCC[C@H]1C(=O)N1CCC[C@H]1C(=O)N[C@@H](Cc1cnc[nH]1)C(=O)N1CCC[C@H]1C(=O)N[C@@H](CCCN=C(N)N)C(=O)N[C@@H](CC(C)C)C(=O)O [RREAEPEAEPGNNRPVYIPQPRPPHPRL]
